One assay deals with Rhesus PDE2A3 (Macaca mulatta, UniProt B3VTJ2). In words: PDE2 fluorescence polarization (IMAP FP) inhibition assay, rhesus enzyme. The class given is biochemical, rhesus macaque. The gist of the method:
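Rhesus PDE2A3 came from lysate of transiently transfected AD293 cells, diluted to give 20% substrate conversion. Substrate was 50 nM FAM-cAMP with 1 uM cGMP activator in Tris pH 7.2/MgCl2 buffer, run 60 min at room temperature over 10-point 3-fold dilutions in 1% DMSO. Read-out was IMAP fluorescence polarization (mP) after ≥1 h binding.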
(In general: Polarisation of emitted light reports the rotation of a fluorescent probe.)

Another assay concerns the target human PDE2A1 (Homo sapiens (Human), UniProt O00408). In words: IMAP FP PDE selectivity panel, human PDE2A1. Format: biochemical. The gist of the method:
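GST-tagged human PDE2A1 expressed in insect cells, run at room temperature for 60 min with 50 nM FAM-cAMP containing 1000 nM cGMP, pH 7.2 Tris/MgCl2 buffer. IMAP fluorescence polarization read after binding step.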

[1] abbreviates: Rhesus PDE2, Lab A, read-out: Rhesus PDE2 Ki (nM) - Lab A.
The mark [2] stands for this setting: Human PDE2, Lab A, read-out: Human PDE2 Ki (nM) - Lab A.
[3] abbreviates: Rhesus PDE2, Lab B, read-out: Rhesus PDE2 Ki (nM) - Lab B.
Where [4] appears, read: Human PDE2, Lab B, read-out: Human PDE2 Ki (nM) - Lab B.

The Ki is the equilibrium dissociation constant of an inhibitor or competing ligand from its target.

Where two headings read alike, the source gives them in different places.

Rhesus PDE2A3, sequence (B3VTJ2 1-941): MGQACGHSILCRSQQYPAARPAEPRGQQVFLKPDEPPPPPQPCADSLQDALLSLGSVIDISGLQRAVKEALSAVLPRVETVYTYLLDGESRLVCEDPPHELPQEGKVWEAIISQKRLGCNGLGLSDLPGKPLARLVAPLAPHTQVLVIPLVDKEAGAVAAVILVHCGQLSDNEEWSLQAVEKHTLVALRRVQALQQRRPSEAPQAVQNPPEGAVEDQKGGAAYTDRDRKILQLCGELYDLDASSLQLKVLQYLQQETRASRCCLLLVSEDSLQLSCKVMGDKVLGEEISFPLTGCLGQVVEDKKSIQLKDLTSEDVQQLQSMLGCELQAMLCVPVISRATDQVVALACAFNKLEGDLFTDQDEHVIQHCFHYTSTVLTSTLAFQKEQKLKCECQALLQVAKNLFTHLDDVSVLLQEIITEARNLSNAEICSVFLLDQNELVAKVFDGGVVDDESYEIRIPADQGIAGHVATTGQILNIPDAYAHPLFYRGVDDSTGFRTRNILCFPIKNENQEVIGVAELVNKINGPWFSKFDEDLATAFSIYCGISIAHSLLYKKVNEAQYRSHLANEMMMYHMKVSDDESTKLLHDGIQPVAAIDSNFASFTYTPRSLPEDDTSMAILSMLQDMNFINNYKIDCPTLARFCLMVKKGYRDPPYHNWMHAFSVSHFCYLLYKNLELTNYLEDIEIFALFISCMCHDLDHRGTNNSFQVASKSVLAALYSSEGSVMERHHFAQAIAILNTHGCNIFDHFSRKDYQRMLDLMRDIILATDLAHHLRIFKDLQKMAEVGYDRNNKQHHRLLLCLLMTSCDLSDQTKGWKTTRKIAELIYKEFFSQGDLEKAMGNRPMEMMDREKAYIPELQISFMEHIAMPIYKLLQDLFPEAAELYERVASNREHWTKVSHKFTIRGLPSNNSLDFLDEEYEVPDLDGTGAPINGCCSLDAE
human PDE2A1, sequence (O00408 other isoform, or with tags, fused parts or gaps): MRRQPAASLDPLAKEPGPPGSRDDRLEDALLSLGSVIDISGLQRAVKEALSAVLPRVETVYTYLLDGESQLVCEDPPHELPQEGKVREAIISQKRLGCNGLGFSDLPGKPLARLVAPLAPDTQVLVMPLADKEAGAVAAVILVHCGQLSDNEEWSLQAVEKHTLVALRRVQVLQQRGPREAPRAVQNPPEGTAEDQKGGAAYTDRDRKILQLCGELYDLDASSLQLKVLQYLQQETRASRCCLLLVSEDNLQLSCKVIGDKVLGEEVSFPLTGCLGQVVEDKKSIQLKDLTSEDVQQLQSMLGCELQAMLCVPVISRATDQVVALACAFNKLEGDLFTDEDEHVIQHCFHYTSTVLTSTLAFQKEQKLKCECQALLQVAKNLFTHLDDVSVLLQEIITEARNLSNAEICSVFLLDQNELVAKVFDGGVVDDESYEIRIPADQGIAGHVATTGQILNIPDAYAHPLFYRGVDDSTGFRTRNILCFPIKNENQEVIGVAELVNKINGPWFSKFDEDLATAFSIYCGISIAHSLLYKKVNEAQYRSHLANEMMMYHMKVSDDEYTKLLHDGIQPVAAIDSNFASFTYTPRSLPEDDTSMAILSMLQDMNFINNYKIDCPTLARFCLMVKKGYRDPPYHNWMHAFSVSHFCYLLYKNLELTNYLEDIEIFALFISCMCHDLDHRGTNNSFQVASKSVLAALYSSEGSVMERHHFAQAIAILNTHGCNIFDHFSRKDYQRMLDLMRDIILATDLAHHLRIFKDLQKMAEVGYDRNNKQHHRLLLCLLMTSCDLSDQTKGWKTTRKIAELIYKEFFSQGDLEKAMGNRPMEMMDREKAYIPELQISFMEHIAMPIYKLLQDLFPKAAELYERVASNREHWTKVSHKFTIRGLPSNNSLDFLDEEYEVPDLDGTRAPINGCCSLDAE

For `Cc1nc(C(=O)NC(C)c2ccc(C(F)(F)F)cc2C)cc(=O)[nH]1` (centres unmarked) [Example 25, 2-methyl-N-{1-[2-methyl-4-(trifluoromethyl)phenyl]ethyl}-6-oxo-1,6-dihydropyrimidine-4-carboxamide], the values for the Ki on Rhesus PDE2A3 (setting [1]) and at human PDE2A1 (setting [2]) were 1140 nM and 663 nM, respectively.
For `CC[C@@H](NC(=O)c1cc(=O)[nH]c(-c2ncccn2)n1)c1ccc(OC(F)(F)F)cc1` [Example 106, 6-oxo-N-{(1R)-1-[4-(trifluoromethoxy)phenyl]propyl}-1,6-dihydro-2,2′-bipyrimidine-4-carboxamide], the Ki at Rhesus PDE2A3 (setting [1]) came to 12 nM; on human PDE2A1 (setting [2]) it was 5.6 nM.
For the molecule `CC(C)(C)[C@@H](NC(=O)c1cc(=O)[nH]c(-c2ncccn2)n1)c1ccc(C(F)(F)F)cc1` [Example 255, N-{(1R)-2,2-dimethyl-1-[4-(trifluoromethyl)phenyl]propyl}-6-oxo-1,6-dihydro-2,2′-bipyrimidine-4-carboxamide], the Ki on Rhesus PDE2A3 (setting [1]) came to 3.7 nM; on Rhesus PDE2A3 (setting [3]) it was 4.7 nM; on human PDE2A1 (setting [4]), 4.9 nM.
Consider `CC[C@@H](NC(=O)c1cc(=O)[nH]c(COC)n1)c1ccc(SC(F)(F)F)cc1` [Example 121, 2-(methoxymethyl)-6-oxo-N-[(1R)-1-{4-[(trifluoromethyl)sulfanyl]phenyl}propyl]-1,6-dihydropyrimidine-4-carboxamide], for which the inhibitory constant (Ki) on Rhesus PDE2A3 (setting [1]) was 25 nM; at Rhesus PDE2A3 (setting [3]), 29 nM; on human PDE2A1 (setting [2]) it was ~6.2 nM.
Regarding `COc1ccc(Cc2nc(C(=O)N[C@@H](c3ccc(OC(F)(F)F)c(F)c3)C3CC3)cc(=O)[nH]2)cc1F` [Example 521, N-{(R)-cyclopropyl[3-fluoro-4-(trifluoromethoxy)phenyl]methyl}-2-(3-fluoro-4-methoxybenzyl)-6-oxo-1,6-dihydropyrimidine-4-carboxamide], the Ki worked out at 2.3 nM at Rhesus PDE2A3 (setting [3]) and 2.2 nM on human PDE2A1 (setting [4]).
For the molecule `Cc1nc(C(=O)NC2(c3ccc(SC(F)(F)F)cc3)CCC2)cc(=O)[nH]1` [Example 49, 2-methyl-6-oxo-N-(1-{4-[(trifluoromethyl)sulfanyl]phenyl}cyclobutyl)-1,6-dihydropyrimidine-4-carboxamide], the Ki was 79 nM at Rhesus PDE2A3 (setting [1]) and 45 nM at human PDE2A1 (setting [2]).
As to `O=C(N[C@@H](c1ccc(C(F)(F)F)c(F)c1)C1CC1)c1cc(=O)[nH]c(-c2ncccn2)n1` [Example 91, N-{(R)-cyclopropyl[3-fluoro-4-(trifluoromethyl)phenyl]methyl}-6-oxo-1,6-dihydro-2,2′-bipyrimidine-4-carboxamide], the Ki on Rhesus PDE2A3 (setting [1]) was 34 nM; on Rhesus PDE2A3 (setting [3]) it was 28 nM; on human PDE2A1 (setting [2]) it was ~9.8 nM; at human PDE2A1 (setting [4]), 33 nM.
On to `CC(NC(=O)c1cc(=O)[nH]c(-c2ccccc2)n1)c1ccc(C(C)(C)C)cc1` (centres unmarked) [Example 391, N-[1-(4-tert-butylphenyl)ethyl]-6-oxo-2-phenyl-1,6-dihydropyrimidine-4-carboxamide], for which the figures for the Ki at Rhesus PDE2A3 (setting [3]) and on human PDE2A1 (setting [4]) were 65 nM and 40 nM, respectively.
For `C[C@@H](NC(=O)c1cc(=O)[nH]c(-c2ccccc2)n1)c1ccc(SC(F)(F)F)c(F)c1` [Example 398, N-[(1R)-1-{3-fluoro-4-[(trifluoromethyl)sulfanyl]phenyl}eth-yl]-6-oxo-2-phenyl-1,6-dihydropyrimidine-4-carboxamide], the values for the Ki on Rhesus PDE2A3 (setting [3]) and at human PDE2A1 (setting [4]) were 2.9 nM and 2.3 nM, respectively.
For the molecule `Cc1nc(C(=O)N[C@H](C)c2ccc(C(F)(F)F)c(C)c2)cc(=O)[nH]1` [Example 46, 2-methyl-N-{(1R)-1-[3-methyl-4-(trifluoromethyl)phenyl]ethyl}-6-oxo-1,6-dihydropyrimidine-4-carboxamide], the Ki at Rhesus PDE2A3 (setting [1]) came out at 65 nM; at human PDE2A1 (setting [2]), 72 nM.
In the case of `CC(C)(NC(=O)c1cc(=O)[nH]c(C2CC2)n1)c1ccc(C(F)(F)F)c(F)c1` [Example 200, 2-cyclopropyl-N-{1-[3-fluoro-4-(trifluoromethyl)phenyl]-1-methylethyl}-6-oxo-1,6-dihydropyrimidine-4-carboxamide], the inhibition constant Ki at Rhesus PDE2A3 (setting [1]) is 16 nM; at human PDE2A1 (setting [2]), 9.2 nM.

Values taken from US9815796B2 (Merck Sharp & Dohme Corp., priority 2013, dated 2017).
